Laboratory results from patent publication US11814367B2, “Inhibitors of glycogen synthase 1 (GYS1) and methods of use thereof” (Maze Therapeutics, Inc., priority 2021, dated 2023).

Experiments:
[1] = target: hGYS1 enzyme (recombinant hGYS1/GN1 protein) (Homo sapiens (Human), UniProt P13807); experiment: GYS1 coupled enzyme assay (PK/LDH); assay type: biochemical; conditions: hGYS1/GN1 50 nM, UDP-Glucose 0.8 mM, G6P 1 mM; geometric mean of at least 2 runs
[2] = system: hGYS1 enzyme / glycogen synthesis in HeLa cells; experiment: GYS1 cell based assay (glycogen synthesis, Glucose-glo); parameters: species or system human; conditions: 24 h incubation, 20 mM glucose, geometric mean of at least 2 runs
In short: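 HeLa cells starved 24 h in medium containing only 1× Glutamax were plated onto compound in medium with 20 mM glucose (1% DMSO final) for 24 h, 37 °C, 5% CO2. Acid lysates were Tris-quenched, glucoamylase-digested (pH 5.3, 1 h, 37 °C) and read by Glucose-glo luminescence. IC50 came from Hill fits, as geometric mean of ≥2 runs.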

[3] = target: hGYS2 enzyme (recombinant hGYS2/GN1 protein) (Homo sapiens (Human), UniProt P54840); experiment: GYS2 coupled enzyme assay (PK/LDH); assay type: biochemical; conditions: geometric mean of at least 2 assay runs on separate days, read-out: Avg_IC50
In short: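 Continuous PK/LDH-coupled readout of NADH loss at 340 nm over 10 min, with 200 nM hGYS2/GN1 and 2 mM each of UDP-glucose, glucose-6-phosphate and PEP, in 50 mM Tris pH 7.5 with 0.2% glycogen and 2.5% DMSO. Slopes were normalized to controls and IC50s fit to a Hill curve from duplicates.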

Chain of hGYS1 enzyme (recombinant hGYS1/GN1 protein) (P13807 whole entry): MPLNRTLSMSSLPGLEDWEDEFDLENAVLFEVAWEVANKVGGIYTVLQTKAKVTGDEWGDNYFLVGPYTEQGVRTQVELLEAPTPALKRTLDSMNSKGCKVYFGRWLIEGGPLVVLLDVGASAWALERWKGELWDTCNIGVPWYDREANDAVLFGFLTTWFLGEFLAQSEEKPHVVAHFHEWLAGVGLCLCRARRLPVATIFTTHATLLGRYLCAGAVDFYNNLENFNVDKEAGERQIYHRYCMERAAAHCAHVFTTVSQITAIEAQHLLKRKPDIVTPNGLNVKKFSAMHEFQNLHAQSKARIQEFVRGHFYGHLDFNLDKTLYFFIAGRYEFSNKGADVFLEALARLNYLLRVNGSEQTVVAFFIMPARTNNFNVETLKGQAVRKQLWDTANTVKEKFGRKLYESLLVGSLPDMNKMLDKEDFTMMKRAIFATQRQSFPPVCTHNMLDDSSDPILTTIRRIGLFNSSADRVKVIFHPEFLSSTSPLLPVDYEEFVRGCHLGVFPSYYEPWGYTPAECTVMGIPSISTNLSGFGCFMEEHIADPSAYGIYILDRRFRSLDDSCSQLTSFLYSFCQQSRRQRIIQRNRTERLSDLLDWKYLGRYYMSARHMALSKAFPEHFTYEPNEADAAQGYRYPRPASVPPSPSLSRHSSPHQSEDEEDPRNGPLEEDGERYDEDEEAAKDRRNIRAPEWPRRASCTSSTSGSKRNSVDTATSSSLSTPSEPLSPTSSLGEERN
Chain of hGYS1 enzyme (recombinant hGYS1/GN1 protein) (P46976 whole entry partner): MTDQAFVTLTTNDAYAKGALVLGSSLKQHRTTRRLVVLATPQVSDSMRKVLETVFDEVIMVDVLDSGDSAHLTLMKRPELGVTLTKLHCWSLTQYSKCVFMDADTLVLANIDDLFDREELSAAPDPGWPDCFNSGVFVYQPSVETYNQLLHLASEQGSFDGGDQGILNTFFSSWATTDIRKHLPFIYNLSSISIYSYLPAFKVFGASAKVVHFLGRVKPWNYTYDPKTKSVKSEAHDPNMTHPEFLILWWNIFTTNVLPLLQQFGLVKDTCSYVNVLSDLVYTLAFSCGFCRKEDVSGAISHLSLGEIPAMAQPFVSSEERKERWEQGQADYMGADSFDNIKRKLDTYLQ
Chain of hGYS2 enzyme (recombinant hGYS2/GN1 protein) (P54840 whole entry): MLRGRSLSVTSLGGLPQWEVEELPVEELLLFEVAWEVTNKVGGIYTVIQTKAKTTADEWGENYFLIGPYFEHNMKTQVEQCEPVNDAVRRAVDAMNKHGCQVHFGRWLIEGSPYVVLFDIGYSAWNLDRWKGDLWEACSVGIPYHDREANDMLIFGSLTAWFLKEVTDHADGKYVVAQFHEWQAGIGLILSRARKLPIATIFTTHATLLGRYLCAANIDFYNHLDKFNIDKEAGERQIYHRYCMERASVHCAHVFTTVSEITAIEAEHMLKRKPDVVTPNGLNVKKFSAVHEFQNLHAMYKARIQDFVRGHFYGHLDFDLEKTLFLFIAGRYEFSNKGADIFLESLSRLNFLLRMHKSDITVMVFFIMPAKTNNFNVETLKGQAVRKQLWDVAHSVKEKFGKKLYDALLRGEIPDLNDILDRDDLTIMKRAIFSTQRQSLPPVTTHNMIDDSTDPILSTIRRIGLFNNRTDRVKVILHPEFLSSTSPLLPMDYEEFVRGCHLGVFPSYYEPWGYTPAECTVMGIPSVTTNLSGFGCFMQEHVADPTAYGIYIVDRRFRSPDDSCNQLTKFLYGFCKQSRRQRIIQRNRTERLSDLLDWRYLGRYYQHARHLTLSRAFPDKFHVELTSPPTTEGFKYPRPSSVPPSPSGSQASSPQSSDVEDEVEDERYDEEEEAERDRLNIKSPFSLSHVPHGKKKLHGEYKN
Chain of hGYS2 enzyme (recombinant hGYS2/GN1 protein) (P46976 whole entry partner): as the sequence (P46976 whole entry partner) above

Structure (SMILES): Cc1cc(C(NC(=O)[C@@H]2C[C@@H](F)CN2C(=O)Cc2cnn[nH]2)c2ccccc2)cc(F)c1C(C)C (single isomer, unassigned) [Compound 680, (2S,4R)-4-fluoro-N-[(S) or (R)-[3-fluoro-5-methyl-4-(propan-2-yl)phenyl](phenyl)methyl]-1-[2-(1H-1,2,3-triazol-5-yl)acetyl]pyrrolidine-2-carboxamide]
- IC50 [1]: 15 nM
- IC50 [2]: 270 nM
- IC50 [3]: 93000 nM

Structure (SMILES): Cc1nnn(CC(=O)N2C[C@H](F)C[C@H]2C(=O)NC(c2ccccc2)c2cc(C)c(C3CC3)c(F)c2)n1 (single isomer, unassigned) [Compound 682, (2S,4R)-N-[(S) or (R)-(4-cyclopropyl-3-fluoro-5-methylphenyl) (phenyl)methyl]-4-fluoro-1-[2-(5-methyl-2H-1,2,3,4-tetrazol-2-yl)acetyl]pyrrolidine-2-carboxamide]
- IC50 [1]: 116 nM
- IC50 ([2]; Homo sapiens, HeLa, 24 h): 2090 nM
- IC50 [3]: > 100000 nM

Structure (SMILES): CC(=O)N1C[C@H](F)C[C@H]1C(=O)NC(c1cccc(-c2ccn[nH]2)c1)c1ccc(C(C)C)c(F)n1 (single isomer, unassigned) [Compound 690, (2S,4R)-1-acetyl-4-fluoro-N-[(S) or (R)-[6-fluoro-5-(propan-2-yl)pyridin-2-yl][3-(1H-pyrazol-5-yl)phenyl]methyl] pyrrolidine-2-carboxamide]
- IC50 [1]: 47 nM
- IC50 ([2]; Homo sapiens, HeLa, 24 h): 900 nM
- IC50 [3]: > 100000 nM

Structure (SMILES): CC(C)c1ccc([C@@H](NC(=O)[C@@H]2C[C@@H](F)CN2C(=O)C(C)n2cnnn2)c2ccccc2)cc1F (single isomer, unassigned) [Compound 766, (2S,4R)-4-fluoro-N-[(S)-[3-fluoro-4-(propan-2-yl)phenyl](phenyl)methyl]-1-[(2R) or (2S)-2-(1H-1,2,3,4-tetrazol-1-yl)propanoyl]pyrrolidine-2-carboxamide]
- IC50 [1]: 38 nM
- IC50 ([2]; Homo sapiens, HeLa, 24 h): 350 nM
- IC50 [3]: > 100000 nM

Structure (SMILES): CC(C)c1ccc([C@@H](NC(=O)[C@@H]2C[C@@H](F)CN2C(=O)C(C)n2ccnc2)c2ccccc2)cc1F (single isomer, unassigned) [Compound 768, (2S,4R)-4-fluoro-N-[(S)-[3-fluoro-4-(propan-2-yl)phenyl](phenyl)methyl]-1-[(2R) or (2S)-2-(1H-imidazol-1-yl)propanoyl]pyrrolidine-2-carboxamide]
- IC50 [1]: 121 nM
- IC50 [2]: 1230 nM
- IC50 [3]: > 100000 nM

Structure (SMILES): CC(C)c1ccc([C@@H](NC(=O)[C@@H]2C[C@@H](F)CN2C(=O)C(C)c2cnn[nH]2)c2ccccc2)cc1F (single isomer, unassigned) [Compound 769, (2S,4R)-4-fluoro-N-[(S)-[3-fluoro-4-(propan-2-yl)phenyl](phenyl)methyl]-1-[(2R) or (2S)-2-(1H-1,2,3-triazol-5-yl)propanoyl]pyrrolidine-2-carboxamide]
- IC50 [1]: 22 nM
- IC50 ([2]; Homo sapiens, HeLa, 24 h): 290 nM
- IC50 [3]: > 100000 nM

Structure (SMILES): CC(C)c1ccc([C@@H](NC(=O)[C@@H]2C[C@@H](F)CN2C(=O)C(C)n2ccnc2)c2ccccc2)cc1F (single isomer, unassigned) [Compound 771, (2S,4R)-4-fluoro-N-[(S)-[3-fluoro-4-(propan-2-yl)phenyl](phenyl)methyl]-1-[(2S) or (2R)-2-(1H-imidazol-1-yl)propanoyl]pyrrolidine-2-carboxamide]
- IC50 [1]: 33 nM
- IC50 [2]: 540 nM
- IC50 [3]: > 100000 nM

Structure (SMILES): CC(C)c1ccc([C@@H](NC(=O)[C@@H]2C[C@@H](F)CN2C(=O)C(O)c2cnn[nH]2)c2ccccc2)cc1F (single isomer, unassigned) [Compound 773, (2S,4R)-4-fluoro-N -[(S)-[3-fluoro-4-(propan-2-yl)phenyl](phenyl)methyl]-1-[(2R) or (2S)-2-hydroxy-2-(1H-1,2,3-triazol-5-yl)acetyl]pyrrolidine-2-carboxamide]
- IC50 [1]: 124 nM
- IC50 [2]: 1200 nM
- IC50 [3]: > 100000 nM

Structure (SMILES): CC(C)c1ccc([C@@H](NC(=O)[C@@H]2C[C@@H](F)CN2C(=O)C(O)c2cnn[nH]2)c2ccccc2)cc1F (single isomer, unassigned) [Compound 774, (2S,4R)-4-fluoro-N-[(S)-[3-fluoro-4-(propan-2-yl)phenyl](phenyl)methyl]-1-[(2S) or (2R)-2-hydroxy-2-(1H-1,2,3-triazol-5-yl)acetyl]pyrrolidine-2-carboxamide]
- IC50 [1]: 22 nM
- IC50 [2]: 190 nM
- IC50 [3]: > 100000 nM

Structure (SMILES): CC(C(=O)N1C[C@H](F)C[C@H]1C(=O)N[C@@H](c1ccccc1)c1ccc(C2CC2)c(F)c1)n1cnc2ccccc21 (single isomer, unassigned) [Compound 809, (2S,4R)-1-[(2S) or (2R)-2-(1H-1,3-benzodiazol-1-yl)propanoyl]-N-[(S)-(4-cyclopropyl-3-fluorophenyl)(phenyl)methyl]-4-fluoropyrrolidine-2-carboxamide]
- IC50 [1]: 7 nM
- IC50 [2]: 190 nM
- IC50 [3]: > 100000 nM

Structure (SMILES): CC(C(=O)N1C[C@H](F)C[C@H]1C(=O)N[C@@H](c1ccccc1)c1ccc(C2CC2)c(F)c1)n1cnc2ccccc21 (single isomer, unassigned) [Compound 810, (2S,4R)-1-[(2R) or (2S)-2-(1H-1,3-benzodiazol-1-yl)propanoyl]-N-[(S)-(4-cyclopropyl-3-fluorophenyl)(phenyl)methyl]-4-fluoropyrrolidine-2-carboxamide]
- IC50 [1]: 357 nM
- IC50 [2]: 5280 nM
- IC50 [3]: > 100000 nM

Structure (SMILES): CC(C)c1ccc([C@@H](NC(=O)[C@@H]2C[C@@H](F)CN2C(=O)Cc2nncn2C)c2ccccc2)cc1 (stereo in doubt) [Compound 227, (2RS,4R)-4-fluoro-1-[2-(4-methyl-4H-1,2,4-triazol-3-yl)acetyl]-N-[(S)-phenyl[4-(propan-2-yl)phenyl]methyl]pyrrolidine-2-carboxamide]
- IC50 [1]: 76 nM
- IC50 ([2]; Homo sapiens, HeLa, 24 h): 1310 nM
- IC50 [3]: > 100000 nM

Structure (SMILES): CC(C)c1ccc([C@@H](NC(=O)[C@@H]2C[C@@H](F)CN2C(=O)Cc2cnn[nH]2)c2ccccc2)cc1 [Compound 1, (2S,4R)-1-(2-(1H-1,2,3-triazol-5-yl)acetyl)-4-fluoro-N-((S)-(4-isopropylphenyl)(phenyl)methyl) pyrrolidine-2-carboxamide]
- IC50 [1]: 33 nM
- IC50 ([2]; Homo sapiens, HeLa, 24 h): 420 nM
- IC50 [3]: > 100000 nM

Structure (SMILES): CC(=O)N(CCC(=O)N1C[C@H](F)C[C@H]1C(=O)N[C@@H](c1ccccc1)c1ccc(C(C)C)cc1)c1ccn(C)n1 [Compound 2, (2S,4R)-4-fluoro-1-{3-[N-(1-methyl-1H-pyrazol-3-yl)acetamido)propanoyl}-N-[(S)-phenyl[4-(propan-2-yl)phenyl]methyl]pyrrolidine-2-carboxamide]
- IC50 [1]: 59 nM
- IC50 ([2]; Homo sapiens, HeLa, 24 h): 1090 nM
- IC50 [3]: > 100000 nM

Structure (SMILES): CC(C)c1ccc([C@@H](NC(=O)[C@@H]2C[C@@H](F)CN2C(=O)Cn2nccn2)c2ccccc2)cc1 [Compound 17, (2S,4R)-4-fluoro-N-[(S)-phenyl[4-(propan-2-yl)phenyl]methyl]-1-[2-(2H-1,2,3-triazol-2-yl)acetyl]pyrrolidine-2-carboxamide]
- IC50 [1]: 34 nM
- IC50 ([2]; Homo sapiens, HeLa, 24 h): 330 nM
- IC50 [3]: > 100000 nM

Structure (SMILES): CC(C)c1ccc([C@@H](NC(=O)[C@@H]2C[C@@H](F)CN2C(=O)COc2cccnn2)c2ccccc2)cc1 [Compound 21, (2S,4R)-4-fluoro-N-[(S)-phenyl[4-(propan-2-yl)phenyl]methyl]-1-[2-(pyridazin-3-yloxy)acetyl]pyrrolidine-2-carboxamide]
- IC50 [1]: 27 nM
- IC50 ([2]; Homo sapiens, HeLa, 24 h): 470 nM
- IC50 [3]: > 100000 nM
